This is an account of results in patent publication US8673949B2 (Bristol-Myers Squibb Company, priority 2008, dated 2014).

Values joined by “and” are separate entries in the source; they are usually repeats but may differ in a detail not shown here. Identical values can stand only once. Like-named read-outs stand apart in the source and are kept apart here.

Data set [1] is described as follows: Plasma, brain and liver levels after oral gavage in C57BL/6 mice. Format: in vivo, mouse. The note with it: C57BL/6 mice; for Brain/Liver Ratio / Kp at 1 h / concentration at 1 h / concentration at 1 hr: 1 hr; for Kp at 1 h: brain and plasma. The source says: Below, we first report the experimental detail for preparation and isolation of Compound III, and then the biological, in vivo data is described.

For data set [2] the following is noted: bolus IV 5 mpk, cited from earlier work; for Brain conc / Plasma conc: WO 03/074053 data converted to nM; for Brain-to-plasma Ratio: WO 03/074053 data.
A short description of a further data set: in vivo. Particulars: nude, mouse, iv.
The conditions of data set [3]: mouse, in vivo, iv; for Brain-to-Liver Ratio: nude, 12 mg/kg.
Data set [4] relates to paclitaxel-induced peripheral neuropathy. Particulars: rats; cited from earlier work.
Data set [5] relates to PrP T44 Tau transgenic mice. The note with it: treatment for 3 months; cited from earlier work.
The nature of data set [6]: Plasma, brain and liver levels after bolus IV administration in nude mice.

With `CCC[C@H]1C(=O)C(C)(C)[C@@H](O)CC(=O)O[C@H](/C(C)=C/c2csc(C)n2)CC=C(C)CCC[C@H](C)[C@@H]1O` (single isomer, unassigned) [Compound III, 4,8-dihydroxy-16-(1-methyl-2-(2-methyl-4-thiazolyl)-ethenyl)-1-oxa-7-(1-propyl)-5,5,9,13-tetramethyl-cyclohexadec-13-ene-2,6-dione], the brain retention entry in data set [1] (oral 10 and 35 mpk, no measureable brain levels at 24 h) is “poor brain retention”. Also, the “brain half life compared with epothilone D” value in data set [1] (oral 35 mpk, FIG. 9) is on record as “significantly shorter than epothilone D”. Further, the entries for the “Brain/Liver Ratio” value in data set [1] (oral gavage 10 mpk) and in data set [1] (oral gavage 35 mpk) were 0.1 and 0.4, respectively. Further, the Brain conc result in data set [1] (oral gavage 10 mpk, 5 hr) is on record as “(3.7 nM)”; in data set [1] (oral gavage 10 mpk, 7 hr) it was “(3.7 nM)”; in data set [1] (oral gavage 10 mpk, 24 hr), “(3.7 nM)”; in data set [1] (oral gavage 35 mpk, 24 hr), “<LLQ”; in data set [2] (0.17 hr), 580 nM; in data set [2] (0.67 hr), 1150 nM. The Plasma conc entry in data set [1] (oral gavage 10 mpk, 24 hr) is given as “(0.2 nM)”; in data set [2] (0.17 hr), 1540 nM; in data set [2] (0.67 hr), 580 nM. The Kp at 1 h in data set [1] (mouse, 10 mg/kg, oral gavage 10 mpk, read-out: Brain/Plasma Ratio) amounted to 0.8; in data set [1] (mouse, 35 mg/kg, oral gavage 35 mpk, read-out: Brain/Plasma Ratio), 2.3. In addition, the concentration at 1 h came out at 9.6 nM in data set [1] (mouse, brain, 10 mg/kg, oral gavage 10 mpk, read-out: Brain conc) and 12.3 nM in data set [1] (mouse, plasma, 10 mg/kg, oral gavage 10 mpk, read-out: Plasma conc). Also, the concentration at 1 hr in data set [1] (mouse, brain, 35 mg/kg, oral gavage 35 mpk, read-out: Brain conc) is 67.7 nM; in data set [1] (mouse, plasma, 35 mg/kg, oral gavage 35 mpk, read-out: Plasma conc), 47.7 nM. The concentration at 5 hr in data set [1] (mouse, brain, 35 mg/kg, oral gavage 35 mpk, 5 hr, read-out: Brain conc) was determined as 4.6 nM; in data set [1] (mouse, plasma, 10 mg/kg, oral gavage 10 mpk, 5 hr, read-out: Plasma conc) it was 1.3 nM; in data set [1] (mouse, plasma, 35 mg/kg, oral gavage 35 mpk, 5 hr, read-out: Plasma conc) it was 3 nM. Moreover, the Kp at 5 h in data set [1] (mouse, brain/plasma, 35 mg/kg, oral gavage 35 mpk, 5 hr, read-out: Brain/Plasma Ratio) stood at 1.4. In addition, the concentration at 7 hr in data set [1] (mouse, plasma, 10 mg/kg, oral gavage 10 mpk, 7 hr, read-out: Plasma conc) was 1.2 nM. In addition, in data set [1] (mouse, plasma, 35 mg/kg, oral gavage 35 mpk, 24 hr, read-out: Plasma conc), the concentration at 24 hr was 0.7 nM. Also, the entries for the “Brain-to-plasma Ratio” value in data set [2] (0.17 hr), in data set [2] (0.67 hr) and in data set [2] ([…]) were 0.4, 2 and 1.3, respectively.
In the data set “in vivo” (12 mg/kg), `C/C(=C\c1csc(C)n1)[C@@H]1C[C@@H]2O[C@]2(C)CCC[C@H](C)[C@H](O)[C@@H](C)C(=O)C(C)(C)[C@@H](O)CC(=O)N1` [Ixabepilone, (1S,3S,7S,10R,11S,12S,16R)-7,11-dihydroxy-8,8,10,12,16-pentamethyl-3-[(1E)-1-methyl-2-(2-methyl-4-thiazolyl)ethenyl]-17-oxa-4-azabicyclo[14.1.0]heptadecane-5,9-dione] registered a Kp at 1 h of 0.73, a Kp at 2 h of 2.1, a Kp at 6 h of 7 and a Kp at 24 h of 30. Moreover, the Kp at […] in “in vivo” (12 mg/kg) was 0.05 and 0.16. In addition, in “in vivo” (12 mg/kg, Brain conc), the concentration at 1 h was determined as 284 nM, the concentration at 2 h was found to be 360 nM, the concentration at 6 h was found to be 371 nM and the concentration at 24 h was 236 nM. Further, in “in vivo” (12 mg/kg, Plasma conc), the concentration at 1 h is 390 nM, the concentration at 2 h was 171 nM, the concentration at 6 h was 53 nM and the concentration at 24 h is 8 nM. In addition, the “brain levels relative to peripheral tissue (ratio of brain-to-liver compound levels)” value in data set [3] was “modest brain levels relative to peripheral tissue”. For the same compound, the “Brain-to-Liver Ratio” value in data set [3] (1 h) is reported as 0.07. Moreover, in data set [3] (2 h), the “Brain-to-Liver Ratio” value is 0.11. Further, the “Brain-to-Liver Ratio” value in data set [3] (6 h) was determined as 0.30. In data set [3] (24 h), the “Brain-to-Liver Ratio” value came to 1.2.
On to NAP: a peptide of sequence NAPVSIPQ, for which the “protection against paclitaxel-induced peripheral neuropathy” value in data set [4] is reported as “able to protect against paclitaxel-induced peripheral neuropathy”.
Turning to `CC(=O)O[C@H]1C(=O)[C@@]2(C)[C@H]([C@H](OC(=O)c3ccccc3)[C@]3(O)C[C@H](OC(=O)[C@H](O)[C@@H](NC(=O)c4ccccc4)c4ccccc4)C(C)=C1C3(C)C)[C@]1(OC(C)=O)CO[C@@H]1C[C@@H]2O` [Paclitaxel, paclitaxel], in data set [5], the “Tau pathology (spheroids)” value was “unaffected”; the “microtubule numbers and axonal transport in the ventral roots of the spinal cord” value was “increased microtubule numbers and axonal transport”; the motor dysfunction entry was “reduced motor dysfunction”. In the data set “in vivo” (4 mg/kg, Brain conc), this compound gave a concentration at 1 h of 47 nM, a concentration at 6 h of 16 nM and a concentration at 24 h of 15 nM. Moreover, in the data set “in vivo” (4 mg/kg, Brain-to-plasma Ratio), the Kp at 1 h was determined as 0.1, the Kp at 6 h worked out at 0.37 and the Kp at 24 h came out at 1.25. In the data set “in vivo” (4 mg/kg, Plasma conc), this compound gave a concentration at 1 h of 447 nM, a concentration at 6 h of 43 nM and a concentration at 24 h of 12 nM. In addition, the brain levels result in data set [3] (4 mg/kg) was “low”.
Consider `C/C(=C\c1csc(CN)n1)[C@@H]1C[C@@H]2O[C@]2(C)CCC[C@H](C)[C@H](O)[C@@H](C)C(=O)C(C)(C)[C@@H](O)CC(=O)O1` [Compound II], for which the “Brain-to-Liver Ratio” value in data set [6] (bolus IV 1 mpk, 6 hr) is given as 0.01; in data set [6] (bolus IV 1 mpk, 24 hr) it was 0.02. Moreover, in data set [6] (bolus IV, particularly at later times), the “brain levels relative to peripheral tissue (ratio of brain-to-liver compound levels)” value is “modest brain levels relative to peripheral tissue”. Besides, the concentration at 6 h in data set [6] (nude, mouse, in vivo, iv, 1 mg/kg, Brain conc, bolus IV 1 mpk, 6 hr) was 6.8 nM; in data set [6] (nude, mouse, in vivo, iv, 1 mg/kg, Plasma conc, bolus IV 1 mpk, 6 hr) it was 3 nM. Moreover, the concentration at 24 h is 1.3 nM in data set [6] (nude, mouse, in vivo, iv, 1 mg/kg, Brain conc, bolus IV 1 mpk, 24 hr) and 1 nM in data set [6] (nude, mouse, in vivo, iv, 1 mg/kg, Plasma conc, bolus IV 1 mpk, 24 hr). Besides, the Kp at 6 h in data set [6] (nude, mouse, in vivo, iv, 1 mg/kg, Brain-to-plasma Ratio, bolus IV 1 mpk, 6 hr) was 2.1. Moreover, in data set [6] (nude, mouse, in vivo, iv, 1 mg/kg, Brain-to-plasma Ratio, bolus IV 1 mpk, 24 hr), the Kp at 24 h was 1.2.
